Measurements: BindingDB's records for doi:10.1111/cbdd.12198 (Shanghai Institute of Pharmaceutical Industry, 2014)
pIC50: −log10 of the molar value.

Tests used:
[1] = molecular target: Serine/threonine-protein kinase B-raf (Homo sapiens, UniProt P15056); experiment: Biochemical Assay; conditions: pH 7.5; 25 °C
Protocol: (§1) Compounds were prepared in DMSO at 10mmol/L and serially diluted in a 96-well plate as the source plate. The intermediate plate consists of 4µL from the source plate mixed with 96µL of 1× kinase buffer (50mmol/L HEPES, pH 7.5; 10mmol/L MgCl2; 1mmol/L EGTA; 0.01% Brij-35). Of 2.5µL was transferred to a 384-well assay plate in duplicates. To the assay plate, 5µL of BRAF 7nmol/L or BRAF V600E 0.7nmol/L, 2.5µL of substrate solution containing Fluorescein-MAP2K1 0.8µmol/L and ATP (for BRAF 2µmol/L, for BRAF V600E 6µmol/L) were added and the assay plate was incubated with the compounds for 1 h at room temperature. The reaction was stopped with the addition of 10µL of detection solution (antibody 4nmol/L and EDTA 20mmol/L in antibody dilution buffer) to each well of the assay plate.

[2] = molecular target: Serine/threonine-protein kinase B-raf [V600E] (Homo sapiens, UniProt P15056, V600E); experiment: Biochemical Assay; conditions: pH 7.5; 25 °C
Protocol: as §1

Chain of Serine/threonine-protein kinase B-raf [V600E] (P15056 2-766 V600E limits assumed): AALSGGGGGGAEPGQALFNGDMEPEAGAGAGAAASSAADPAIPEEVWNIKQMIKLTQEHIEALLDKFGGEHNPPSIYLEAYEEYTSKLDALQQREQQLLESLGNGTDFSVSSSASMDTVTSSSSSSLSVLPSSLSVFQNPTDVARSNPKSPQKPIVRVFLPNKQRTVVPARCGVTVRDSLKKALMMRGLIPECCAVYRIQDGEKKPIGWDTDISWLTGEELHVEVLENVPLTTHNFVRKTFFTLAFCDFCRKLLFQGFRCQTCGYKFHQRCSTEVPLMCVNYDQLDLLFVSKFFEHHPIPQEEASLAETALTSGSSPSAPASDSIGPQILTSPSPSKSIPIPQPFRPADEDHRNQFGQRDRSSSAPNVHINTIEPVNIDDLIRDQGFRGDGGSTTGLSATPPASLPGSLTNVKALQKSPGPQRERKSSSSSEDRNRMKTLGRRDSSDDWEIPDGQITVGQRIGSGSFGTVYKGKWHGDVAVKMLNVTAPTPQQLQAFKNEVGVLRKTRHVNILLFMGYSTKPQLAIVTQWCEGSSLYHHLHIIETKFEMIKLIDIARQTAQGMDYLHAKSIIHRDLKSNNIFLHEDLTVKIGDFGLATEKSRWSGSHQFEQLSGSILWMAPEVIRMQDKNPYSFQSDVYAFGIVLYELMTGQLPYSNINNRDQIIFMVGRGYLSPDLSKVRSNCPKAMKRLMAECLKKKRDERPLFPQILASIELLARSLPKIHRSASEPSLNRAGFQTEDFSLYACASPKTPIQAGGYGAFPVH
Chain of Serine/threonine-protein kinase B-raf (P15056 whole entry): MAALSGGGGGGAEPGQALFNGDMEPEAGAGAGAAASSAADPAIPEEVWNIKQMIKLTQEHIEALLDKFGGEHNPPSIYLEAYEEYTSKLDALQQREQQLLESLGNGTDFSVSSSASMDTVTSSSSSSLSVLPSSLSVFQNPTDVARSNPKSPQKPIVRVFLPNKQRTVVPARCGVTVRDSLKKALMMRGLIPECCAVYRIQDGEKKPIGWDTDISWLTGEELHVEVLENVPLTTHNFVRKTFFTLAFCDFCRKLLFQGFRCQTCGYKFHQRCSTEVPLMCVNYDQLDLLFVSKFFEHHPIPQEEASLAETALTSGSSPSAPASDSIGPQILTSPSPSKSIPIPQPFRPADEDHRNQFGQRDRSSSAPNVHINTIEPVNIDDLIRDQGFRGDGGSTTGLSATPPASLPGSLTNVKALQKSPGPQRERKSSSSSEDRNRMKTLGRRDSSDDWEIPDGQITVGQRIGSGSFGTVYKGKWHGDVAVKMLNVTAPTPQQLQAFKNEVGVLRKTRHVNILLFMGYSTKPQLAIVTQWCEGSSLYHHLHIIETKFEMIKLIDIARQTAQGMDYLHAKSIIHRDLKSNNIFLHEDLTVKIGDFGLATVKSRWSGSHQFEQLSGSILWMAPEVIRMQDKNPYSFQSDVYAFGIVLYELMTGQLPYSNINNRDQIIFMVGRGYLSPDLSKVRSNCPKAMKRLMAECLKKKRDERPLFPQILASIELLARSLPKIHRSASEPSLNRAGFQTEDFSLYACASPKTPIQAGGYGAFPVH

SMILES	pIC50 [1]	pIC50 [2]
Cc1nc(Cl)cc(Nc2cccc(NC(=O)Nc3ccc(Cl)c(C(F)(F)F)c3)c2)n1 [1-(3-(6-Chloro-2-methylpyrimidin-4-ylamino)phenyl)-3-(4-chloro-3-(trifluoromethyl)phenyl)urea (Compound 1)]	6.14	6.53
Cc1nc(Nc2cccc(NC(=O)Nc3ccc(F)c(Cl)c3)c2)cc(N2CCOCC2)n1 [1-(3-Chloro-4-fluorophenyl)-3-(3-(2-methyl-6-morpholinopyrimidin-4-ylamino)phenyl)urea (Compound 2)]	5.97	6.20
Cc1nc(N2CCOCC2)cc(N(C)c2cccc(NC(=O)Nc3ccc(F)c(Cl)c3)c2)n1 [1-(3-Chloro-4-fluorophenyl)-3-(3-(methyl (2-methyl-6-morpholinopyrimidin-4-yl)amino)phenyl)urea (Compound 5)]	6.44	6.63
Cc1nc(Nc2cccc(NC(=O)Nc3ccc(Cl)c(C(F)(F)F)c3)c2)cc(N2CCOCC2)n1 [1-(4-Chloro-3-(trifluoromethyl)phenyl)-3-(3-(2-methyl-6-morpholinopyrimidin-4-ylamino)phenyl) urea (Compound 3)]	6.57	6.85

Continued, values first:

pIC50 [1]	pIC50 [2]	SMILES
5.86	5.86	Cc1nc(N2CCOCC2)cc(N(C)c2cccc(NC(=O)Nc3ccc(Cl)c(C(F)(F)F)c3)c2)n1 [1-(4-Chloro-3-(trifluoromethyl)phenyl)-3-(3-(methyl (2-methyl-6-morpholinopyrimidin-4-yl)amino)phenyl)urea (Compound 6)]
< 5.00	5.14	Cc1nc(Nc2cccc(NC(=O)Nc3ccc(Cl)c(C(F)(F)F)c3)c2)cc(N2CCN(C)CC2)n1 [1-(4-Chloro-3-(trifluoromethyl)phenyl)-3-(3-(2-methyl-6-(4-methylpiperazin-1-yl)pyrimidin-4-ylamino)phenyl)urea (Compound 4)]
5.28	5.30	Cc1nc(N2CCN(C)CC2)cc(N(C)c2cccc(NC(=O)Nc3ccc(Cl)c(C(F)(F)F)c3)c2)n1 [1-(4-Chloro-3-(trifluoromethyl)phenyl)-3-(3-(methyl (2-methyl-6-(4-methylpiperazin-1-yl)pyrimidin-4-yl)amino)phenyl)urea (Compound 7)]
